Experimental data taken from ChEMBL document CHEMBL5126640, “Sanggenon C Suppresses Tumorigenesis of Gastric Cancer by Blocking ERK-Drp1-Mediated Mitochondrial Fission” (J Nat Prod, 2022).
The source made the active and inactive calls. No cut-off for these calls is given here.

What was measured:
[1] = Toxicity in nude mouse xenografted with human AGS cells assessed as effect on aspartate aminotransferase level at 10 to 20 mg/kg, ip administered every other day and monitored every 3 days; type: organism-based; conditions: in vivo, 72 h, dose 10-20 mg/kg, time 3 day
AGS [2] = assay: Induction of apoptosis in human AGS cells transfected with pcDNA3.1-Drp1 plasmid to overexpress DRP1 assessed as late apoptotic cells and measured after 24 hrs by AnnexinV-FITC/PI staining based flow cytometry method (reference value: 2.1 %); type: functional
HGC-27 [3] = assay: Inhibition of mitochondrial fission in human HGC-27 cells assessed as reduction in mitochondrial elongated fragments at 0 to 6 uM measured after 24 hrs by mitotracker based confocal microscopy; type: functional, cell-based; conditions: dose 0-6 µM
HGC-27 [4] = assay: Inhibition of colony formation of human HGC-27 cells assessed as reduction in colony number at 0 to 10 uM measured after 24 hrs by crystal violet staining assay; type: functional, cell-based; conditions: dose 0-10 µM
HGC-27 [5] = assay: Induction of apoptosis in human HGC-27 cells assessed as necrotic cells measured after 24 hrs by AnnexinV-FITC/PI staining based flow cytometry method (reference value: 0.1 %); type: functional
AGS [6] = assay: Inhibition of mitochondrial fission in human AGS cells assessed as reduction in mitochondrial elongated fragments at 0 to 6 uM measured after 24 hrs by mitotracker based confocal microscopy; type: functional, cell-based; conditions: dose 0-6 µM
HGC-27 [7] = assay: Induction of cell cycle arrest in human HGC-27 cells assessed as accumulation of cells at G0/G1 phase at 10 uM incubated for 24 hrs propidium iodide staining-based flow cytometric analysis (reference value: 45.21%); type: functional
HGC-27 [8] = assay: Induction of apoptosis in human HGC-27 cells assessed as necrotic cells at 10 uM measured after 24 hrs by AnnexinV-FITC/PI staining based flowcytometry method (reference value: 0.2%); type: functional
AGS [9] = assay: Induction of cell cycle arrest in human AGS cells assessed as decrease in Cyclin D1 level at 0 to 10 uM by Western blot analysis; type: functional, cell-based; conditions: dose 0-10 µM
HGC-27 [10] = assay: Antiproliferative activity against human HGC-27 cells assessed as reduction in cell growth measured after 24 hrs by CCK8 assay; type: functional, cell-based; conditions: HGC-27, 24 h
AGS [11] = assay: Antitumor activity against human AGS cells xenografted in nude mouse assessed as downregulation of p-DRP1 levels at 10 to 20 mg/kg, ip administered every other day and monitored every 3 days; type: functional, organism-based; conditions: dose 10-20 mg/kg, time 3.0 day
AGS [12] = assay: Induction of apoptosis in human AGS cells assessed as viable cells at 8 uM measured after 24 hrs by AnnexinV-FITC/PI staining based flowcytometry method (reference value: 95.2%); type: functional; conditions: read-out: Activity
HGC-27 [13] = assay: Induction of apoptosis in human HGC-27 cells assessed as downregulation of Bcl-2 level at 0 to 10 uM by Western blot analysis; type: functional, cell-based; conditions: dose 0-10 µM
AGS [14] = assay: Antitumor activity against human AGS cells xenografted in nude mouse assessed as suppression of tumor burden at 10 to 20 mg/kg, ip administered every other day and monitored every 3 days; type: functional, organism-based; conditions: dose 10-20 mg/kg, time 3.0 day
HGC-27 [15] = assay: Inhibition of mitochondrial fission in human HGC-27 cells assessed as reduction in ATP content at 0 to 10 uM measured after 24 hrs by microplate reader assay; type: functional, cell-based; conditions: dose 0-10 µM
AGS [16] = assay: Inhibition of ERK signalling pathway in human AGS cells assessed as downregulation of p-ERK levels at 0 to 10 uM and measured after 24 hrs by western blot analysis; type: cell-based; conditions: dose 0-10 µM
HGC-27 [17] = assay: Induction of mitochondrial dysfunction in human HGC-27 cells assessed as decrease in mitochondrial membrane potential measured after 24 hrs by JC-1 staining based flow cytometry; type: functional, cell-based; conditions: DDE = dose-dependent effect
AGS [18] = assay: Induction of apoptosis in human AGS cells assessed as increase in cleaved caspase-3 level at 0 to 10 uM by Western blot analysis; type: functional, cell-based; conditions: dose 0-10 µM
HGC-27 [19] = assay: Induction of apoptosis in human HGC-27 cells assessed as early apoptotic cells at 10 uM measured after 24 hrs by AnnexinV-FITC/PI staining based flowcytometry method (reference value: 3.3%); type: functional
HGC-27 [20] = assay: Induction of cell cycle arrest in human HGC-27 cells assessed as decrease in Cyclin D1 level at 0 to 10 uM by Western blot analysis; type: functional, cell-based; conditions: dose 0-10 µM
HGC-27 [21] = assay: Inhibition of mitochondrial fission in human HGC-27 cells assessed as reduction in punctiform mitochondria at 0 to 6 uM measured after 24 hrs by mitotracker based confocal microscopy; type: functional; conditions: dose 0-6 µM
AGS [22] = assay: Induction of apoptosis in human AGS cells assessed as early apoptotic cells at 6 uM measured after 24 hrs by AnnexinV-FITC/PI staining based flowcytometry method (reference value: 1.2%); type: functional
HGC-27 [23] = assay: Induction of apoptosis in human HGC-27 cells transfected with pcDNA3.1-Drp1 plasmid to overexpress DRP1 assessed as late apoptotic cells measured after 24 hrs by AnnexinV-FITC/PI staining based flow cytometry method (reference value: 2.0%); type: functional
AGS [24] = assay: Induction of apoptosis in human AGS cells transfected with pcDNA3.1-Drp1 plasmid to overexpress DRP1 assessed as viable cells and measured after 24 hrs by AnnexinV-FITC/PI staining based flow cytometry method (reference value: 95.6 %); type: functional
AGS [25] = assay: Induction of apoptosis in human AGS cells assessed as late apoptotic cells at 6 uM measured after 24 hrs by AnnexinV-FITC/PI staining based flowcytometry method (reference value: 3.4%); type: functional
HGC-27 [26] = assay: Induction of apoptosis in human HGC-27 cells transfected with pcDNA3.1-Drp1 plasmid to overexpress DRP1 assessed as necrotic cells measured after 24 hrs by AnnexinV-FITC/PI staining based flow cytometry method (reference value: 0%); type: functional
AGS [27] = assay: Induction of cell cycle arrest in human AGS cells assessed as accumulation of cells at G0/G1 phase at 10 uM incubated for 24 hrs propidium iodide staining-based flow cytometric analysis (reference value: 46.51%); type: functional
[28] = Toxicity in nude mouse xenografted with human AGS cells assessed as effect on liver morphology at 10 to 20 mg/kg, ip administered every other day and monitored every 3 days by Hematoxyin-eosin staining based analysis; type: organism-based; conditions: in vivo, 72 h, dose 10-20 mg/kg, time 3 day
AGS [29] = assay: Induction of cell cycle arrest in human AGS cells assessed as accumulation of cells at G0/G1 phase at 8 uM incubated for 24 hrs propidium iodide staining-based flow cytometric analysis (reference value: 46.51%); type: functional
AGS [30] = assay: Induction of apoptosis in human AGS cells assessed as necrotic cells at 8 uM measured after 24 hrs by AnnexinV-FITC/PI staining based flowcytometry method (reference value: 0.2%); type: functional
AGS [31] = assay: Induction of apoptosis in human AGS cells transfected with pcDNA3.1-Drp1 plasmid to overexpress DRP1 assessed as early apoptotic cells and measured after 24 hrs by AnnexinV-FITC/PI staining based flow cytometry method (reference value: 2.1 %); type: functional
HGC-27 [32] = assay: Induction of apoptosis in human HGC-27 cells assessed as necrotic cells at 8 uM measured after 24 hrs by AnnexinV-FITC/PI staining based flowcytometry method (reference value: 0.2%); type: functional
AGS [33] = assay: Induction of apoptosis in human AGS cells assessed as necrotic cells at 6 uM measured after 24 hrs by AnnexinV-FITC/PI staining based flowcytometry method (reference value: 0.2%); type: functional
AGS [34] = assay: Induction of mitochondrial dysfunction in human AGS cells assessed as decrease in mitochondrial membrane potential measured after 24 hrs by JC-1 staining based flow cytometry; type: functional, cell-based; conditions: DDE = dose-dependent effect

In the case of `CC(C)=CCC12Oc3cc(O)ccc3C1(O)Oc1cc(O)c([C@H]3C=C(C)C[C@H](c4ccc(O)cc4O)[C@H]3C(=O)c3ccc(O)cc3O)c(O)c1C2=O` (some centres undefined), the Activity [1] is reported as “Non-Toxic”, the Activity (AGS [2]) is reported as 6.8% and the inhibition (HGC-27 [3]) is reported as “Active”. For the same compound, the inhibition (HGC-27 [4]) was “Active”, the Activity (HGC-27 [5]) was 0.4% and the inhibition (AGS [6]) was “Active”. The Activity (HGC-27 [7]) was 64.2%, the Activity (HGC-27 [8]) was 1.3% and the Activity (AGS [9]) was “Active”. The IC50 (HGC-27 [10]) was 9.13 µM, the Activity (AGS [11]) was “Active” and the viability at 8 µM (AGS [12]) was 89.8%. For the same compound, the Activity (HGC-27 [13]) was “Active”, the Activity (AGS [14]) was “Active” and the inhibition (HGC-27 [15]) was “Active”. For the same compound, the inhibition (AGS [16]) was “Active”, the Activity (HGC-27 [17]) was “Dde” and the Activity (AGS [18]) was “Active”. For the same compound, the Activity (HGC-27 [19]) was 10.3%, the Activity (HGC-27 [20]) was “Active” and the inhibition (HGC-27 [21]) was “Active”. The Activity (AGS [22]) was 1.7%, the Activity (HGC-27 [23]) was 1.8% and the Activity (AGS [24]) was 90.3%. It also gave an Activity (AGS [25]) of 7.9%, an Activity (HGC-27 [26]) of 0.4% and an Activity (AGS [27]) of 55.9%. For the same compound, the Activity [28] was “Non-Toxic”, the Activity (AGS [29]) was 54.9% and the Activity (AGS [30]) was 0.3%. It also gave an Activity (AGS [31]) of 2.8%, an Activity (HGC-27 [32]) of 1.8% and an Activity (AGS [33]) of 0.2%. The Activity (AGS [34]) was “Dde”.
